Results as given in PMC9851200, “Multiparameter phenotypic screening for endogenous TFEB and TFE3 translocation identifies novel chemical series modulating lysosome function” (Autophagy, 2022).

Experiments:
Assay type in all cases: binding
[1] = target: kinases (KINOMEscan panel) (Homo sapiens, UniProt P42685); settings: kinase FRK; NEW KINOMEscan
[2] = target: kinases (KINOMEscan panel) (Homo sapiens, UniProt P30291); settings: WEE1; NEW KINOMEscan
[3] = target: kinases (KINOMEscan panel) (Homo sapiens, UniProt P09769); settings: FGR; NEW KINOMEscan
[4] = target: kinases (KINOMEscan panel) (Homo sapiens, UniProt P00533, G719S); settings: EGFR(G719S); NEW KINOMEscan
[5] = target: kinases (KINOMEscan panel) (Homo sapiens, UniProt Q14680); settings: kinase MELK; NEW KINOMEscan
[6] = target: kinases (KINOMEscan panel) (Homo sapiens, UniProt P09619); settings: NEW KINOMEscan
[7] = target: kinases (KINOMEscan panel) (Homo sapiens, UniProt P07948); settings: NEW KINOMEscan
[8] = target: kinases (KINOMEscan panel) (Homo sapiens, UniProt Q9UBF8); settings: kinase PI4KB; NEW KINOMEscan
[9] = target: kinases (KINOMEscan panel) (Homo sapiens, UniProt O96013); settings: PAK4; NEW KINOMEscan
[10] = target: T1, kinases (KINOMEscan panel) (Homo sapiens, UniProt Q02156); settings: kinase PRKCE; NEW KINOMEscan
T1 sequence (Q02156 1-737): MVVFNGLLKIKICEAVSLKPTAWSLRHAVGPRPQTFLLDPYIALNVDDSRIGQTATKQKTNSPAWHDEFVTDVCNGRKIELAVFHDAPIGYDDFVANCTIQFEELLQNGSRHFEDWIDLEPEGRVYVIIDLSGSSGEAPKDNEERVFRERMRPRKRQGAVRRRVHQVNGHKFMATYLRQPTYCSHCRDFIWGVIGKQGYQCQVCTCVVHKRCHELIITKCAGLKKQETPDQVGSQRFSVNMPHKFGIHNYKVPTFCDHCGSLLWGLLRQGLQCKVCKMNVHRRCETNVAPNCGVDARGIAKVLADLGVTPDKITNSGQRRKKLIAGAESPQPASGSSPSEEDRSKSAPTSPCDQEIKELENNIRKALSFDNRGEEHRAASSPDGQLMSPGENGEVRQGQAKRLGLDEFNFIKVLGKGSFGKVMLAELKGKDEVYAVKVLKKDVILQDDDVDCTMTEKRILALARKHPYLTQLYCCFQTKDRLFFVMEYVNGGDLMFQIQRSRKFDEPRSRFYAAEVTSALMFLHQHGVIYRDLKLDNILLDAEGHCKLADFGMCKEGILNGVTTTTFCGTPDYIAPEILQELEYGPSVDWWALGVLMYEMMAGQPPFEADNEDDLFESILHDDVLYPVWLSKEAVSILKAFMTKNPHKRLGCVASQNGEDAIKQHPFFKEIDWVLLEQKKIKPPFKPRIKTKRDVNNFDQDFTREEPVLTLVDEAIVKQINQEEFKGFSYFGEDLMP

[11] = target: T2, kinases (KINOMEscan panel) (Homo sapiens, UniProt Q13237); settings: PRKG2; NEW KINOMEscan
T2 sequence (Q13237 1-762): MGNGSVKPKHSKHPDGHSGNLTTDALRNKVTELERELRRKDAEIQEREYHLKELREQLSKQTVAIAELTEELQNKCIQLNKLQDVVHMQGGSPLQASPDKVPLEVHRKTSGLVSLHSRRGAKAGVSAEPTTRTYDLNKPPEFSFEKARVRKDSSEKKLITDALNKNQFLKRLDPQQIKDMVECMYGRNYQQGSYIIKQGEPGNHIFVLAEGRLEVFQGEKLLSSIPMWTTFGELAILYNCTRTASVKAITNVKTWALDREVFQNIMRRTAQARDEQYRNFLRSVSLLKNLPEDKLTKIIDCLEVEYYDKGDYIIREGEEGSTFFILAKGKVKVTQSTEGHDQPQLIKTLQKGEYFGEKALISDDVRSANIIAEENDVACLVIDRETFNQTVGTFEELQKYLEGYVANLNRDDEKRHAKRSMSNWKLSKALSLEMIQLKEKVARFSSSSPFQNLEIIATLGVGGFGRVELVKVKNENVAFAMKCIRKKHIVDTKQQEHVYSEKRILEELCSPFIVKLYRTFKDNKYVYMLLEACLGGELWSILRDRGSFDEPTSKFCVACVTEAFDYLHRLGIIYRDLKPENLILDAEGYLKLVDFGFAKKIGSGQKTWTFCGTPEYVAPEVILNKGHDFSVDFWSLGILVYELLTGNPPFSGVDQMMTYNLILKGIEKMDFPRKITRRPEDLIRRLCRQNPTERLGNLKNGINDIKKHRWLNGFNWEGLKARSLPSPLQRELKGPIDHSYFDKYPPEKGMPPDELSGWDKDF

[12] = target: T3, kinases (KINOMEscan panel) (Homo sapiens, UniProt Q9UBE8); settings: NLK; NEW KINOMEscan
T3 sequence (Q9UBE8 1-527): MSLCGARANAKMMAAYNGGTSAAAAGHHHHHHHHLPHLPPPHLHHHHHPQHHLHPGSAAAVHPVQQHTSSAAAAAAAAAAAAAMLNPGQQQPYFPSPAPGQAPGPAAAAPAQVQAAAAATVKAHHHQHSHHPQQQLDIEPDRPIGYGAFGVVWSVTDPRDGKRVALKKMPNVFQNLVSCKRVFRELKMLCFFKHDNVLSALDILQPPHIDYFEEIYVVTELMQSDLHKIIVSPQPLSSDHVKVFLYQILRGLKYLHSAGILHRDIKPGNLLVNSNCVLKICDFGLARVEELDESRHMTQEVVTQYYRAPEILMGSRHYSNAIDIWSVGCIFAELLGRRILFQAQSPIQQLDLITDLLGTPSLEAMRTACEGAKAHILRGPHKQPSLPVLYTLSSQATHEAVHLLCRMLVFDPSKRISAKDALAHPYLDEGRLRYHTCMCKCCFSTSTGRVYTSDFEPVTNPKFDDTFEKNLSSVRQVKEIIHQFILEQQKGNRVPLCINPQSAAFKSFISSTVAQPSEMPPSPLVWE

[13] = target: kinases (KINOMEscan panel) (Homo sapiens, UniProt P0C1S8); settings: WEE2; NEW KINOMEscan
Chain of kinases (KINOMEscan panel) (Homo sapiens, UniProt P0C1S8) (P0C1S8 whole entry): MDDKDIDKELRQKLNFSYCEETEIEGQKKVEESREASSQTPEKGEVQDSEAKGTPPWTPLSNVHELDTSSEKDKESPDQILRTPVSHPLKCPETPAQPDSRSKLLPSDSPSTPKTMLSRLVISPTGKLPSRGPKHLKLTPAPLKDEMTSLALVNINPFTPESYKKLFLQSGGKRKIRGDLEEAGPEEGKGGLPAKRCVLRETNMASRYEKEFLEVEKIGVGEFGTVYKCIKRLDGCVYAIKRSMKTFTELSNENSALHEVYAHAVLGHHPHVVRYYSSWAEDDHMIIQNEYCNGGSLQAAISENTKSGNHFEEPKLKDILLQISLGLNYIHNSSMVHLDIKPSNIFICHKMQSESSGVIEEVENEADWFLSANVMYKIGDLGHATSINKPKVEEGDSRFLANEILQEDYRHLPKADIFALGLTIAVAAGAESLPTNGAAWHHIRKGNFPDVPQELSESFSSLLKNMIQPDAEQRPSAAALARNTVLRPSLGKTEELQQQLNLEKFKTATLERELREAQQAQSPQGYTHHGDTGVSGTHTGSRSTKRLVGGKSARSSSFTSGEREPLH

Chain of kinases (KINOMEscan panel) (Homo sapiens, UniProt P09769) (P09769 whole entry): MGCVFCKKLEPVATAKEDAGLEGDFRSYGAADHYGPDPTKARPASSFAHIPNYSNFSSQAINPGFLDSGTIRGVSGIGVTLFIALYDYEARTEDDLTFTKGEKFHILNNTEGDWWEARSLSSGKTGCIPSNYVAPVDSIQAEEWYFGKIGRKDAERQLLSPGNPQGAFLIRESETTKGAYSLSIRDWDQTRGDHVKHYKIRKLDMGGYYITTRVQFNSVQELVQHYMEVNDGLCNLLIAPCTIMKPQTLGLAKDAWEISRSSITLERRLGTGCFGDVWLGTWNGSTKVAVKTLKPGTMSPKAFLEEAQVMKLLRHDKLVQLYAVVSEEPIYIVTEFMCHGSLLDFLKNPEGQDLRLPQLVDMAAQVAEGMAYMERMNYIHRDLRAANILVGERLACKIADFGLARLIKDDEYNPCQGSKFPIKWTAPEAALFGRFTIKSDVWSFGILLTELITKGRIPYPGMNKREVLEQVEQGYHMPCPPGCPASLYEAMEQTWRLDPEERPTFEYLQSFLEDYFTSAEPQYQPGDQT
Chain of kinases (KINOMEscan panel) (Homo sapiens, UniProt P07948) (P07948 whole entry): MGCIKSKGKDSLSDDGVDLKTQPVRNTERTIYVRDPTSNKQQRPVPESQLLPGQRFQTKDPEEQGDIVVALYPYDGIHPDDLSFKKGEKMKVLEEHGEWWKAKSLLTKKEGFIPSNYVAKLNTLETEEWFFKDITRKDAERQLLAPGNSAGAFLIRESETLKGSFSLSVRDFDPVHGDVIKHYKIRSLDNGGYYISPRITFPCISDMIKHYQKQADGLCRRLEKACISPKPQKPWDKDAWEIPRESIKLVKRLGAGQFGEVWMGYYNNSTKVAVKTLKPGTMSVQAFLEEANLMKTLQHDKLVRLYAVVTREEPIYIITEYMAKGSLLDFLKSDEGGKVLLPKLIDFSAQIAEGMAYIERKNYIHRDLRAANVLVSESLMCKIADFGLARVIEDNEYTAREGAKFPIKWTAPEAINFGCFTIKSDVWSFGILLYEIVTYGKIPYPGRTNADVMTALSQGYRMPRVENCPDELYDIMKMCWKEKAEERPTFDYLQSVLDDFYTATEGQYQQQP
Chain of kinases (KINOMEscan panel) (Homo sapiens, UniProt P30291) (P30291 whole entry): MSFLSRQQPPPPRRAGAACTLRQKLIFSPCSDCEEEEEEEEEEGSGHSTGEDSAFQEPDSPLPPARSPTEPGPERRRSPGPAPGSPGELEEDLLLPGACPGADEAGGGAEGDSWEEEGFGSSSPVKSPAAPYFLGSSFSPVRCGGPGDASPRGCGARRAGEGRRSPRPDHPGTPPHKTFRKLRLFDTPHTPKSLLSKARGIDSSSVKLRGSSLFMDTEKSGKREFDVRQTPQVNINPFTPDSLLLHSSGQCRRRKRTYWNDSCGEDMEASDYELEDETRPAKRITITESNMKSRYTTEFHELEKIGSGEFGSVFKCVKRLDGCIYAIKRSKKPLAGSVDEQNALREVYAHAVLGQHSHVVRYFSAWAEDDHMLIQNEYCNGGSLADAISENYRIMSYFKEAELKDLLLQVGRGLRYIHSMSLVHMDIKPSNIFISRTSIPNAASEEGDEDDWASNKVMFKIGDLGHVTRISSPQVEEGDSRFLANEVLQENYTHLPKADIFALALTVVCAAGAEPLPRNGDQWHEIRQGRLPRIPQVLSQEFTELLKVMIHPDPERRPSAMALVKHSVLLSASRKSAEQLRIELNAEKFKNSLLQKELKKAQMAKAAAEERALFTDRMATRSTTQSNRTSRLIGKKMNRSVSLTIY
Chain of kinases (KINOMEscan panel) (Homo sapiens, UniProt P00533, G719S) (P00533 25-1210 G719S): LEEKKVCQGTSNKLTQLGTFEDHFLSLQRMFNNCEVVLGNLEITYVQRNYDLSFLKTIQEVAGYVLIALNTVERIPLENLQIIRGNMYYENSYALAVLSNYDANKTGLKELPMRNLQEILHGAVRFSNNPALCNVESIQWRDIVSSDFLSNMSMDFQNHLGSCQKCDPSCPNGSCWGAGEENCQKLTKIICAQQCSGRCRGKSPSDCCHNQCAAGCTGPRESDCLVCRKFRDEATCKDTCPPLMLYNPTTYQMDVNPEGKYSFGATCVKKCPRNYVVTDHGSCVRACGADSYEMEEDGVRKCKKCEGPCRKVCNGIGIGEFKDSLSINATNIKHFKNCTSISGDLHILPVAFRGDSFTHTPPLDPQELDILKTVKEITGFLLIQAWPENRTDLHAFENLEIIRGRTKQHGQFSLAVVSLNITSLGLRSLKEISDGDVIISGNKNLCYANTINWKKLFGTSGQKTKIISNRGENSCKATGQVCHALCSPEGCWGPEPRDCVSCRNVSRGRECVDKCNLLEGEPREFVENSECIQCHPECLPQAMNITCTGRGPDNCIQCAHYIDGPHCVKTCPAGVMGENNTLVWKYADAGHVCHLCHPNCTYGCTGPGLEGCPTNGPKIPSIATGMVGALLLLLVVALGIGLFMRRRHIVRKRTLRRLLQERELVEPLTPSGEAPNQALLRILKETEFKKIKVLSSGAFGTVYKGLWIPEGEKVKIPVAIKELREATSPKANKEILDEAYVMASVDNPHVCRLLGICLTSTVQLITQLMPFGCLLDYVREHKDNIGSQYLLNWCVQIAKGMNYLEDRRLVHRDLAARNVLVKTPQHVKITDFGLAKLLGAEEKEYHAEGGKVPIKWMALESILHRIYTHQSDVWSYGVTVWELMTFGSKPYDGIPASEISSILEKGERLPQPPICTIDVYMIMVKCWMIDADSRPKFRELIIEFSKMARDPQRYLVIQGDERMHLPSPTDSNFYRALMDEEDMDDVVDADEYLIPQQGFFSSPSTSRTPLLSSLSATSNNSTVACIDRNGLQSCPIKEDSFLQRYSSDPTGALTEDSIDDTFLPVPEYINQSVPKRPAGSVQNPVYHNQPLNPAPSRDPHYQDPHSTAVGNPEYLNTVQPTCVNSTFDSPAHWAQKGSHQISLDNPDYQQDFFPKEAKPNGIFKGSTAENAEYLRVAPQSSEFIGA
Chain of kinases (KINOMEscan panel) (Homo sapiens, UniProt Q14680) (Q14680 whole entry): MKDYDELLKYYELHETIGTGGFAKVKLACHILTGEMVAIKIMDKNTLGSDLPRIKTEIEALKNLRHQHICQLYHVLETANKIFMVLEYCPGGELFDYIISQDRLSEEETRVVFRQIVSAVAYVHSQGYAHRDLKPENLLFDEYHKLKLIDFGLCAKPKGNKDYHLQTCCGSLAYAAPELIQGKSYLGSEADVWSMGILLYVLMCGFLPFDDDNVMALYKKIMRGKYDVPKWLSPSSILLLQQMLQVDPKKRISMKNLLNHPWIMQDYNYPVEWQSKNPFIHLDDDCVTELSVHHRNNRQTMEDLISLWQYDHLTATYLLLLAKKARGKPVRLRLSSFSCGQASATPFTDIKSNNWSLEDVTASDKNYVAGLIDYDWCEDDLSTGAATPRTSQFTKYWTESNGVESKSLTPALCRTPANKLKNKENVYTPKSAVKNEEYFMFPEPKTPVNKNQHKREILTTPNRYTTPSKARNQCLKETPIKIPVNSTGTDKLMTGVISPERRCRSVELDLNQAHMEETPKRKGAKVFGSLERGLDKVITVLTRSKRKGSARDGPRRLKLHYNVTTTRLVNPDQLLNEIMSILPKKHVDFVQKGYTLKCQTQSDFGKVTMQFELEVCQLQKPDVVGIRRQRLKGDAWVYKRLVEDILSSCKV
Chain of kinases (KINOMEscan panel) (Homo sapiens, UniProt O96013) (O96013 whole entry): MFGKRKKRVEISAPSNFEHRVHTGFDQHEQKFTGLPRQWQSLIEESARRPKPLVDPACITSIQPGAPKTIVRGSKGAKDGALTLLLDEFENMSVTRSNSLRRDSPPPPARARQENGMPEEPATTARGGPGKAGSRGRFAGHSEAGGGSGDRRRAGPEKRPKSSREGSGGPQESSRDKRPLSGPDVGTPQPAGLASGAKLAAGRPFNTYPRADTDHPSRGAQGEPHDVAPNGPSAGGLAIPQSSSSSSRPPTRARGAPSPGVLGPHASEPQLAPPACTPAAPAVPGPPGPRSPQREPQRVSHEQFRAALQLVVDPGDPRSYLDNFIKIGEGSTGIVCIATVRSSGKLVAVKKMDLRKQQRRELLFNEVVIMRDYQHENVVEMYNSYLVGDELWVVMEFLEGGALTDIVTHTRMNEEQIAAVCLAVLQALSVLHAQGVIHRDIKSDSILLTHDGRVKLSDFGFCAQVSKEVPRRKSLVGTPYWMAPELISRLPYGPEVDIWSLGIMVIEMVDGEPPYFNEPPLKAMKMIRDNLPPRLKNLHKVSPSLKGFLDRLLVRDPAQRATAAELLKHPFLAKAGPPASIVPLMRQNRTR

| Compound | KINOMEscan FRK [1] | KINOMEscan WEE1 [2] | KINOMEscan FGR [3] | KINOMEscan EGFR(G719S) [4] | KINOMEscan MELK [5] | KINOMEscan PDGFRB [6] | KINOMEscan LYN [7] | KINOMEscan PI4KB [8] | KINOMEscan PAK4 [9] | KINOMEscan PRKCE [10] | KINOMEscan PRKG2 [11] | KINOMEscan NLK [12] | KINOMEscan WEE2 [13] |
| --- | --- | --- | --- | --- | --- | --- | --- | --- | --- | --- | --- | --- | --- |
| Cc1cccc(-c2nc(Nc3ccc4nn(C)cc4c3)c3ccccc3n2)n1 [NK167] | 0 | 0 | 0 | 0 | 0 | 19 | 17 | 0 | 0 | 0 | 5 | 0 | 0 |
| Cc1cccc(-c2nc(N(C)c3ccc4ncsc4c3)c3ccccc3n2)n1 [NK-161] | 0 | 0 | 0 | 0 | 2 | 21 | 12 | 0 | 0 | 7 | 0 | 0 | 5 |
